Results from paper PMC3506129 (Journal of Medicinal Chemistry, 2012).
Where two headings read alike, the source gives them in different places. Marks after values point to notes of the source that are not given here.

Key:
[1] = target: CHK2 (Homo sapiens, UniProt O96017); assay: CHK2 DELFIA kinase assay; assay type: biochemical; details: data not shown
[2] = target: CDK1 (Homo sapiens, UniProt P06493); details: data not shown
[3] = CaCo-2 permeability; assay type: in vitro ADME; details: human
[4] = tested on: CHK1 S296 autophosphorylation in SW620 human colon cancer xenografts; assay: Gemcitabine-induced CHK1 phosphorylation in SW620 xenografts; assay type: in vivo, mouse; details: single po dose at MTD (20: 160, 26: 300 mg/kg); 12 h after gemcitabine
[5] = Plasma and tumor drug levels in SW620 xenograft-bearing mice; assay type: in vivo, mouse; details: po dose at MTD
[6] = tested on: Calu6 human non-small cell lung cancer xenograft; details: Calu6, q7d × 3, gemcitabine 100 mg/kg iv + 26 75 mg/kg po; cited from earlier work
[7] = tested on: panel of 140 representative kinases; assay: Radiometric kinase panel summary, 1 μM; assay type: biochemical, human; details: of 140 kinases
[8] = tested on: 121 kinases; details: against 89 out of the 121 enzymes, screen at 10 μM
[9] = tested on: pS296 CHK1 in HT29 colon tumor xenografts; details: single doses 100–300 mg/kg po; cited from earlier work
[10] = tested on: AMPK; assay: radiometric kinase profiling; assay type: biochemical; details: 1 μM
[11] = tested on: SW620 human colon cancer xenograft; details: SW620, q4d × 3, gemcitabine 100 mg/kg iv + 26 75 mg/kg po; cited from earlier work
[12] = tested on: HT29 human colon cancer xenograft; details: cited from earlier work; for tumor growth delay (days), 26: HT29, q7d × 3, 26 75 mg/kg po alone
[13] = 10 mg/kg iv, 6 h, 9 normalized from 5 mg/kg, 24 from 1 mg/kg, 20 from full PK

Chain of CDK1 (P06493 whole entry, looked up): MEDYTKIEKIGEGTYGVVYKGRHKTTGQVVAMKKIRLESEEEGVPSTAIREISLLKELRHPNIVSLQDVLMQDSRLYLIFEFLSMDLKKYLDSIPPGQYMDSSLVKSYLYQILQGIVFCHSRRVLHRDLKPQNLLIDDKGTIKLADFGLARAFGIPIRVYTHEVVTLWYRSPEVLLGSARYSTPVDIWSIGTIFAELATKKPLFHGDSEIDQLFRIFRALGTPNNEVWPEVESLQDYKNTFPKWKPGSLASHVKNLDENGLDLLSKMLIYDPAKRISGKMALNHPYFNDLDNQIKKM
Chain of CHK2 (O96017 whole entry, species assumed): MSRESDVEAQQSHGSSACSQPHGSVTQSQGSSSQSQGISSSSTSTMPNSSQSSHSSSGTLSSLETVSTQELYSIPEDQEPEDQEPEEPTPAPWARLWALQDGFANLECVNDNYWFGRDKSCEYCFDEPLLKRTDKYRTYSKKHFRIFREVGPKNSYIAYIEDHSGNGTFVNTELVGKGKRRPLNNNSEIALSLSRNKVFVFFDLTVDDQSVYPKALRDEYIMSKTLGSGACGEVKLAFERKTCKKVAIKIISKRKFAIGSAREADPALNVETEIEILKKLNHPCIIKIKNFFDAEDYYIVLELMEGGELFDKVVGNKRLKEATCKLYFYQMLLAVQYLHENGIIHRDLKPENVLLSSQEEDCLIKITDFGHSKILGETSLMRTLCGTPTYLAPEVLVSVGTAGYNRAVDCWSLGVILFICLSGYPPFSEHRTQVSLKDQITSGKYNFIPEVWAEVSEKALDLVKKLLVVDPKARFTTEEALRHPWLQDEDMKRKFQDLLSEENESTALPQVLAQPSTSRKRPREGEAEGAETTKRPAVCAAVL

Q: For COC(=O)c1cnc(Nc2cnc(C#N)c(O[C@@H]3CCNC3)n2)cc1N(C)C [Compound 10], which “selectivity for CHK1 inhibition over CHK2” value [1] is on record?
A: Its value is “greater than 100 fold”.

Q: And the “selectivity for CHK1 inhibition over CDK1” value [2]?
A: The value was “greater than 100 fold”.

Q: Which efflux ratio [3] does the source give for CNc1cc(Nc2cnc(C#N)c(O[C@H](C)CN(C)C)n2)ncc1C(F)(F)F [Compound 15] here?
A: The efflux ratio was > 6.

Q: Which “inhibition of CHK1 S296 autophosphorylation, 12 h” value [4] does the source give for CNc1cc(Nc2cnc(C#N)c(O[C@H](C)CN(C)C)n2)ncc1-c1cnn(C)c1 [Compound 20, (R)-3-((1-(Dimethylamino)propan-2-yl)oxy)-5-((5-(1-methyl-1H-pyrazol-4-yl)-4-(methylamino)pyridin-2-yl)amino)pyrazine-2-carbonitrile] here?
A: The value was “less powerful effect”.

Q: What about the “mouse plasma level iv, 1 h” value (10 mg/kg iv, 1 h, 9 normalized from 5 mg/kg, 24 from 1 mg/kg, 20 from full PK) of the same compound?
A: Its value is 910 (±23) ^h nM.

Q: What about the “mouse plasma level iv, 6 h” value [13] of the same compound?
A: The value was 45 (±10) ^h nM.

Q: And the “mouse plasma level po, 1 h” value (10 mg/kg po, 1 h)?
A: Its value is 555 (±82) ^h nM.

Q: And the “mouse plasma level po, 6 h” value (10 mg/kg po, 6 h)?
A: The value was 57 (±7) ^h nM.

Q: What about the “fall in drug concentration between 6 and 12 h” value [5] of the same compound?
A: Its value is “ca. 20 fold”.

Q: With CNc1cc(Nc2cnc(C#N)c(O[C@@H]3CCN(C)C3)n2)ncc1-c1cnn(C)c1 [Compound 24] as the compound, how does the “mouse plasma level iv, 6 h” value [13] read?
A: Its value is <20 ^i, ^j nM.

Q: With COc1cc(Nc2cnc(C#N)c(O[C@H](C)CN(C)C)n2)ncc1-c1cnn(C)c1 [Compound 26, (R)-3-((1-(Dimethylamino)propan-2-yl)oxy)-5-((4-methoxy-5-(1-methyl-1H-pyrazol-4-yl)pyridin-2-yl)amino)pyrazine-2-carbonitrile] as the compound, how does the “tumor growth delay (days), combination” value [6] read?
A: The value was 15.9 (±2.5) days.

Q: What about the “number of enzymes strongly inhibited (>80%)” value [7] of the same compound?
A: Its value is 7.

Q: And the “selectivity for CHK1” value [8]?
A: The value was > 1000 fold.

Q: And the “inhibition of CHK1 S296 autophosphorylation, 12 h” value [4]?
A: The value was “robust inhibition”.

Q: What about the “duration of inhibition of gemcitabine-induced pS296 CHK1” value [9] of the same compound?
A: Its value is “up to 24 h”.

Q: What about the “enhancement in plasma levels at the 1 h time point relative to 20” value (10 mg/kg, 1 h) of the same compound?
A: Its value is 2 fold.

Q: And the “fall in drug concentration between 6 and 12 h” value [5]?
A: Its value is 2–3 fold.

Q: And the “inhibition (strongly inhibited)” value [10]?
A: The value was > 80%.

Q: And the “tumor growth delay (days), combination” value [11]?
A: The value was 6.0 (±2.4) days.

Q: What about the “tumor growth delay (days), 26” value ([12]; gemcitabine experiment) of the same compound?
A: The value was “–1.8 (±2.1) days”.

Q: What about the “tumor growth delay (days), 26” value ([12]; irinotecan experiment) of the same compound?
A: Its value is 0.30 (±1.4) days.

Q: And the “tumor growth delay (days), combination” value ([12]; HT29, q7d × 3, gemcitabine 100 mg/kg iv + 26 75 mg/kg po at 24 and 48 h)?
A: The value was 11.4 (±3.3) days.

Q: And the “tumor growth delay (days), combination” value ([12]; HT29, q7d × 3, irinotecan 12.5 mg/kg i.p. + 26 75 mg/kg po)?
A: The value was 13.5 (±2.4) days.
